Experimental data published in patent US20260034091A1, “Compositions and Methods for Treating Metabolic Disorders” (The Regents of the University of California, priority 2022, published 2026).

Assays:
[1] = tested on: CDAHFD mouse model of diet-induced NAFLD/NASH; assay: TOFA and Semaglutide single agent and combination in CDAHFD mouse model of NAFLD/NASH; format: in vivo, C57BL/6J male mice
Description: Six-week-old C57BL/6J male mice were fed with a L-amino acid diet with 60 kcal % fat with 0.1% methionine and no added choline (CDAHFD; Research Diets A06071302i) for eight weeks. Mice were randomly assigned to treatment groups of either a vehicle (control), 250 mg/kg of TOFA, 5 nmol/kg of Semaglutide (Novo Nordisk), or a combined dose of 250 mg/kg TOFA plus 5 nmol/kg Semaglutide. TOFA was administered by oral gavage. Semaglutide dosing was up-titrated at beginning of treatment regimen and was delivered via subcutaneous injection at the back shoulder/neck flank. All treatments were delivered QD for an additional four weeks. Mice weights and food intake were monitored during the treatment time course. Upon study termination at 12 weeks, liver and serum samples were collected. Serum liver damage biomarkers, ALT and AST, were measured by commercially available kits (abcam105134 and Cayman 701640, respectively). Hepatic and serum triglyceride levels were measured using a commercially available kit (abcam65336). Total RNA was extracted from liver tissues (Qiagen RNeasy kit 74106), and cDNA was prepared (BioRAD iScript™ Reverse Transcription) according to manufacturer's protocols. Quantitative PCR (qPCR) was performed with fast SYBR Green Mix (ThermoFisher A25742) on the QuantStudio6 System (Applied Biosciences). Additional liver samples were fixed in 4% paraformaldehyde and embedded in paraffin blocks for sectioning and subsequently stained with hematoxylin and eosin (H&E) or Sirius Red with a fast green dye background.

[2] = tested on: 60% HFD diet-induced obesity in mice; assay: Dose-dependent effect of TOFA in 60% HFD mouse model of diet-induced obesity (DIO); format: in vivo, C57BL/6J male mice; details: for body weight: oral
Description: Six-week-old C57BL/6J male mice were fed with a 60 kcal % fat diet (Research Diets A12492i) for ten weeks before introduction of either vehicle (control) or TOFA, at varying doses, for an additional two weeks. TOFA was orally administered in doses of either 12.5, 25, 62.5, or 125 mg/kg, BID. Mice weights and food intake were monitored during the treatment time course. Prior to harvest, mice underwent whole body composition analysis (EchoMRI™ 2012). Upon study termination at 12 weeks, serum and liver samples were collected. Hepatic and serum triglyceride and cholesterol levels were measured by commercially available kits (abcam65336 and abcam65390, respectively). Additional liver samples were fixed in 4% paraformaldehyde and embedded in paraffin blocks for sectioning and subsequently stained with hematoxylin and eosin (H&E).

[3] = tested on: CDAHFD induced NAFLD progression in mice; assay: Dose dependent effect of TOFA in CDAHFD-induced NAFLD progression in mice; format: in vivo; details: 3 weeks
Description: Six-week-old C57BL/6 male mice were fed with a L-Amino Acid Diet With 60 kcal % Fat With 0.1% Methionine and No Added Choline (Research Diets A06071302i) for three weeks before introduction of either vehicle (control) or TOFA via oral gavage for an additional three weeks (FIG. 1a). Mice were gavaged orally twice daily with varying doses of TOFA (0, 25, 50, 125, or 250 mg/kg per day). Upon study termination at six weeks, serum and liver samples were collected. Serum liver damage biomarkers, alanine transaminase (ALT) and aspartate transaminase (AST), were measured by commercially available kits (abcam105134 and abcam 105135, respectively). Hepatic triglycerides were detected from liver samples from a commercially available kit (abcam65336). Liver samples were also scored for degree of hepatic steatosis based on their hematoxylin and eosin (H&E) staining.

chow diet fed mice = assay: Tolerability and toxicity of TOFA in ad libitum fed chow mice; format: in vivo, C57BL/6J male mice; details: oral gavage
Description: Eleven-week-old C57BL/6J male mice were fed with PicoLab Rodent Diet (Purina 5053), or chow diet, ad libitum while being treated with either control or 125 mg/kg, BID by oral gavage for three weeks. Mice weights were tracked during the entire time course. Upon study termination, serum and liver samples were collected. Serum biomarkers such as blood urea nitrogen (BUN) and creatinine were assessed by commercially available kits (abcam83362 and Cayman700460, respectively). Additionally, hepatic and serum triglyceride and cholesterol levels were measured by commercially available kits (abcam65336 and abcam65390, respectively).

[4] = four weeks, TOFA 250 mg/kg oral QD, Semaglutide 5 nmol/kg s.c. QD
[5] = 12.5, 25, 62.5, or 125 mg/kg, BID, two weeks
[6] = TOFA 0, 25, 50, 125, or 250 mg/kg per day, oral gavage twice daily
[7] = 125 mg/kg, BID, three weeks, chow diet

CCCCCCCCCCCCCCOc1ccc(C(=O)O)o1 [TOFA, 5-(Tetradecyloxy)-2-furoic acid]
food intake ([1]; four weeks treatment): not due to changes in food intake
body weight at the end of the treatment time course [1, 4]: smaller degree of weight loss compared to Semaglutide treated mice
inflammation genes (RT-qPCR of liver samples) [1, 4]: specific response of TOFA in addressing inflammation
mRNA levels of genes involved in collagen biosynthesis (RT-qPCR) [1, 4]: strong repressive effectives
serum ALT levels [1, 4]: moderate reductions
serum AST levels [1, 4]: only group to have demonstrated reduction
fibrotic content (Sirius red staining) ([1]; four weeks, liver sections): aforementioned histological trends are noted
steatosis (H&E liver sections) ([1]; four weeks, relative to control): greater reduction in steatosis
liver triglyceride levels ([1]; four weeks, relative to vehicle control): stronger, significant reduction
food intake [2, 5]: remained constant
hepatic steatosis (H&E liver sections) [2, 5]: improvement in hepatic steatosis in a dose-dependent manner
serum cholesterol levels (HDL and VLDL/LDL fractions) [2, 5]: dose-dependent decrease
serum triglyceride levels [2, 5]: dose-dependent decrease
overall lean mass (EchoMRI) ([2]; all treatment groups): no changes
body weight ([2]; highest dose 125 mg/kg, BID, two weeks): weight loss
fat mass as a percentage of body weight (EchoMRI) ([2]; highest dose treatment group (125 mg/kg, BID)): decrease in fat mass as a percentage of body weight
liver triglyceride levels ([2]; highest dosing treatment regimens): striking decreases
body weight ([2]; lower doses (12.5, 25, 62.5 mg/kg, BID), two weeks): smaller or negligible changes in body weight
degree of hepatic steatosis (H&E score) [3, 6]: decreased degree of hepatic steatosis correlating to an increased dosage of TOFA
liver triglyceride contents per gram of liver [3, 6]: decreased in a dose dependent manner
serum ALT activity levels [3, 6]: dose dependent decrease
serum AST activity levels [3, 6]: dose dependent decrease
tolerability ([3]; TOFA up to 250 mg/kg per day, oral): well tolerated
tolerability (chow diet fed mice; 125 mg/kg, BID, three weeks): well tolerated
body weight (chow diet fed mice; [7]): no observed weight change
cholesterol levels in serum (chow diet fed mice; [7]): No changes
cholesterol levels in the liver (chow diet fed mice; [7]): No changes
liver triglyceride levels (chow diet fed mice; [7]): observed decrease
serum blood urea nitrogen (BUN) (chow diet fed mice; [7]): no drug-induced kidney damage
serum creatinine (chow diet fed mice; [7]): no drug-induced kidney damage
serum triglyceride levels (chow diet fed mice; [7]): no significant change
oral bioavailability (chow diet fed mice; mice): orally bioavailable
